In US20190100790A1, “DETERMINATION OF NOTCH PATHWAY ACTIVITY USING UNIQUE COMBINATION OF TARGET GENES” (KONINKLIJKE PHILIPS N.V., priority 2017, published 2019):

Test system: Notch cellular signaling pathway
Assay: Notch pathway activity predicted by Bayesian network model from target gene expression, MOLT4 cell line (data set GSE6495)
Format: cell-based, human
Settings: MOLT4 cells, 48 hours, 5 μM
Excerpt: Herein, an exemplary Bayesian network model as shown in FIG. 2 was used to model the transcriptional program of the Notch cellular signaling pathway in a simple manner. The model consists of three types of nodes: (a) a transcription factor (TF) element (with states “absent” and “present”) in a first layer 1; (b) target genes TG1, TG2, TGn (with states “down” and “up”) in a second layer 2, and; (c) measurement nodes linked to the expression levels of the target genes in a third layer 3. These can be microarray probesets PS1,1, PS1,2, PS1,3, PS2,1, PSn,1, PSn,m (with states “low” and “high”), as preferably used herein, but could also be other gene expression measurements such as RNAseq or RT-qPCR.
A suitable implementation of the mathematical model, herein, the exemplary Bayesian network model, is based on microarray data. The model describes (i) how the expression levels of the target genes depend on the activation of the TF element, and (ii) how probeset intensities, in turn, depend on the expression levels of the respective target genes. For the latter, probeset intensities may be taken from fRMA pre-processed Affymetrix HG-U133Plus2.0 microarrays, which are widely available from the Gene Expression Omnibus (GEO, www.ncbi.nlm.nih.gov/geo) and ArrayExpress (www.ebi.ac.uk/arrayexpress). […]

SMILES: C[C@H](NC(=O)Cc1cc(F)cc(F)c1)C(=O)N[C@H](C(=O)OC(C)(C)C)c1ccccc1 [DAPT]
- Notch cellular signaling pathway activity (odds that the TF element is present) (18 target genes shortlist model, vs untreated (FIG. 11)): decrease in Notch activity
- Notch cellular signaling pathway activity (odds that the TF element is present) (26 target genes list model, vs untreated (FIG. 12)): decrease in Notch activity
